The nature of data set [1]: Plasma pharmacokinetics on cycle 1 day 1. It is filed as in vivo. To be noted: human.
In data set [2] the test system is patients in the registration trial. Conditions: package insert; cited from earlier work.
In data set [3] the test system is patients with relapsed/refractory AML or MDS. To be noted: days 1–5 and 8–12 in combination with bortezomib; cited from earlier work.

Each structure is given as a SMILES string.

One may read the Cmax as the peak of the concentration-time curve. What is called Tmax is the time at which the peak concentration occurs. What is called AUC(0-inf) is the area under the concentration-time curve extrapolated to infinity. High values mean more exposure, low ones less exposure. As usually defined, the half-life is how long it takes for the measured level to halve. As usually defined, the clearance is a measure of how efficiently the substance is removed, as volume per time. A higher clearance goes with a high capacity for elimination.

As to `C=CCn1c(=O)c2cnc(Nc3ccc(N4CCN(C)CC4)cc3)nc2n1-c1cccc(C(C)(C)O)n1` [Adavosertib, adavosertib], in data set [1] (in vivo, Cmax concentrations), the peak concentration (Cmax) is around 500 nM. In data set [1] (in vivo, po), this compound returned a V/F of 784.6 ± 204.3 L. In data set [1] (in vivo, po, 225 mg), the Cl/F is 57.0 ± 13.6 L/h and the Tmax came to 3 h. In data set [1] (in vivo, po, 225 mg, AUCINF), this compound gave an AUC(0-inf) of 7.41 µM·h. In data set [1] (in vivo, po, 225 mg, T1/2), this compound had a half-life of 582 ± 116 min.
For the compound `O=C(/C=C/c1cccc(S(=O)(=O)Nc2ccccc2)c1)NO[C@@H]1O[C@H](C(=O)O)[C@@H](O)[C@H](O)[C@H]1O` [Belinostat glucuronide, belinostat glucuronide], in data set [1] (in vivo, iv, 800 mg/m2), the AUCINF is recorded as 396.0 ± 151.1 (6) μM·h and the T1/2 is on record as 3.51 ± 0.95 (6) h. In data set [1] (in vivo, iv, 1000 mg/m2), the AUCINF was 668.6 ± 452.2 (4) μM·h and the T1/2 is given as 4.41 ± 1.30 (4) h.
In the case of `O=C(/C=C/c1cccc(S(=O)(=O)Nc2ccccc2)c1)NO` [Belinostat, belinostat], the “Patients with QTc prolongation, all grades” value in data set [2] is 11%. Besides, the clearance in data set [1] (plasma, iv, 800 mg/m2) is 643 mL/min. Also, in data set [1] (plasma, iv, 1000 mg/m2), the time to peak (Tmax) amounted to 0.4 h and the clearance is 657 mL/min. Besides, the “Maximum tolerated dose (MTD)” value in data set [3] is 1000 mg/m^2.
